Experimental data published in patent US11478008B2, “Formulations comprising ratfish liver oil or a product of an enzymatic or chemical glycerolysis processing of ratfish liver oil and supercritical rosemary extract and uses thereof” (UNIVERSIDAD AUTÓNOMA DE MADRID, priority 2016, dated 2022).

System: human pancreatic cancer cell cultures (line MiaPaca-2)
Experiment: MTT cell viability assay, human pancreatic cancer cells MiaPaca-2
Type: cell-based
Details: 1%
Method: The antiproliferative activity of the lipid systems (RLO, RLO+MO and GP), formulations with incorporated SRE (RLO+MO+9% SRE and GP+9% SRE) and (digested and non-digested) non-delivered SRE was evaluated in human pancreatic cancer cell cultures (line MiaPaca-2) by means of the MTT method.
Three independent experiments were performed with different cell strains and on different days. The trend observed in terms of the effect of treatments on cell viability was similar in the 3 experiments.
The parameter used to assess the effect of a compound on cell viability is the mean inhibitory concentration (IC50), which is the product concentration inhibiting cell viability by 50%, such that the lower the IC50 of a compound is, the greater its effect will be.

For `O=C1CCCC1` [cyclopentanone], the “viability of treated cells” value was “did not change”.
